Measured values: US5885786A, “Methods for screening of substances for inhibition of multidrug resistance” (priority 1996, dated 1999)
Entries after “also recorded” stand apart in the source; their conditions may differ. Read-outs that look alike come from different tables or passages of the source.

Legend:
[1] = tested on: human melanoma cell lines (M101, M10 and M24); assay: Formation of glycosylceramide in human metastatic melanoma cell lines M101, M10 and M24; format: cell-based; details: 5.0 μM tamoxifen, 24 h, FIG. 17
Text: FIG. 17. […] Identical aliquots of total lipid extract were applied to TLC, and the plate was exposed for autoradiography.

MCF-7-AdrR cells [2] = assay: Temporal pattern of tamoxifen influence on total lipid, glycosylceramide, sphingomyelin and ceramide metabolism; format: cell-based
Procedure: FIG. 13A, FIG. 13B and FIG. 13C. Temporal Pattern for the Influence of Tamoxifen on Total Lipid, Glycosylceramide, and Sphingomyelin Metabolism in MCF-7-AdrR Cells. Cells, preincubated in the absence or presence of tamoxifen (20 μM) for 30 min, were labeled by addition of 1.0 μCi/ml [^3 H]palmitic acid for the times shown using RPMI-1640 medium containing 5% FBS. At each time point, cultures were washed with PBS and lipids were extracted as described under Example I. Aliquots of the labeling medium were counted directly by liquid scintillation spectrometry to determine [^3 H]palmitic acid uptake and incorporation into total cell lipids (FIG. 13A). Glycosylceramide (FIG. 13B) and sphingomyelin (FIG. 13C) levels were evaluated by TLC using solvent system I and II, respectively, followed by quantitation of radiolabel in the relevant regions as detailed in Example I. Results are the mean±SEM of duplicate determinations from two separate experiments.
(§1) FIG. 14A and FIG. 14B. Effect of Tamoxifen on Ceramide Synthesis and Glycosylation in MCF-7-AdrR Cells. FIG. 14: A Influence of tamoxifen on ceramide synthesis. The experiment was conducted as described in the legend to FIG. 13. Aliquots of the total lipid extract were based-hydrolyzed as described in Example I, separated by TLC using solvent system IV, and the resolved [^3 H]ceramide was quantitated by liquid scintillation spectrometry. Results are the mean±SEM of duplicate determinations from two separate experiments. FIG. 14B: Effect of tamoxifen on glycosylation of C6 -ceramide. Cells, in 100×20 mm culture dishes, were preincubated without or with 5.0 μM tamoxifen for 30 min, followed by incubation without or with 5.0 μM C6 -ceramide:BSA (prepared at a 1:1 molar ratio) for an additional 30 min. Cells were labeled thereafter with 1.0 μCi/ml [^3 H]galactose for 24 h. [3H]Galactose uptake was determined and found to be similar in all experimental points (1.0×10^6 cpm/dish). The total extracted lipid was applied to TLC separation and [^3 H]glycosphingolipids were analyzed as described in the legend to FIG. 10. The autoradiography of a representative chromatogram is shown.
Lipid analysis was carried out by TLC using solvent system I: chloroform/methanol/ammonium hydroxide (40:10:1, v/v) for glycosylceramide separation, solvent system II: chloroform/methanol/water (60:40:8, v/v) for sphingoglycolipid separation, or solvent system III: chloroform/methanol/acetic acid/water (50:30:7:3, v/v) for sphingomyelin separation. For determination of ceramides, an aliquot of the chloroform-soluble lipids was base-hydrolyzed in 0.1N KOH in methanol for 1 h at 37° C., lipids were re-extracted, and separated by TLC using solvent system IV: hexane/diethyl ether/formic acid (60:40:1, v/v).
Radiochromatograms were sprayed with EN^3 HANCE, and exposed for 3-7 days for autofluorgraphy. TLC areas, aligned with bands on the autoradiographs or with iodine-stained commercial lipid standards, were scraped from the plate. Water (0.5 ml) was added to the plate scrapings followed by 4.5 ml of EcoLume counting fluid, and the samples were quantitated by liquid scintillation spectrometry.

P-glycoprotein = details: literature; cited from earlier work
[3] = tested on: glycosylation of ceramide in MCF-7-AdrR cells (UDP-glucose:ceramide glucosyltransferase); assay: Glycosylation of C6-ceramide and natural glycosphingolipid synthesis, [3H]galactose labeling; format: cell-based; details: for inhibition at 5 µM: 5.0 μM tamoxifen, FIG. 14B
Procedure: as §1
In order to explore this notion, a short-chain ceramide analog with a 6-carbon N-acyl group (C6 -ceramide), was utilized as a substrate.

MCF-7-AdrR cells [4] = assay: Cell proliferation (MTS) assay: adriamycin toxicity and chemosensitization; details: for effect on adriamycin toxicity / chemosensitization (in words): 5.0 μM tested drug + adriamycin, 72 h, FIG. 15A, 16B
Text: FIG. 15A and FIG. 15B. […] FIG. 15B: Glycosylceramide levels in MDR Cells following drug treatment. […] In order to avoid differences in [^3 H]glycosylceramide values which account for cell death, the same amount of total radioactive lipid from each sample was applied to TLC separation.
FIG. 16A and FIG. 16B. […] FIG. 16A: Effect of PPMP on cellular glycosylceramide levels. […] [^3 H]Glycosylceramide was quantitated as described in the legend to FIG. 9.
Vehicle (acetone, ethanol) was always added to control (minus drug) wells. The cytotoxic activity of a drug was determined using the Promega CellTiter 96™ AQueous MTS cell proliferation assay kit. Each experimental point was performed in six replicates. MTS/PMS solution (20 μl/well) was aliquoted into all wells, and the cells were incubated for 2-3 h, or until an O.D. of 0.9-1.0 was obtained as a highest reading. Thereafter, absorbence at 490 nm was recorded using an ELISA plate reader (Molecular Devices, San Diego, Calif.).

SMILES: CC/C(=C(\c1ccccc1)c1ccc(OCCN(C)C)cc1)c1ccccc1 [tamoxifen]
- inhibition of glucosylceramide formation (in words) [1]: inhibition of glucosylceramide formation
- inhibition of glycosylceramide synthesis within 4 h (in words) (MCF-7-AdrR cells [2]; tamoxifen 20 μM, 4 h time frame, FIG. 13B): almost completely inhibited
- uptake and incorporation of [3H]palmitic acid (in words) (MCF-7-AdrR cells [2]; tamoxifen 20 μM, FIG. 13A): very similar
- onset of glycosylceramide formation inhibition (MCF-7-AdrR cells [2]; tamoxifen 20 μM, FIG. 13B): 15 min
- time of half-maximal influence on glycosylceramide formation (MCF-7-AdrR cells [2]; tamoxifen 20 μM, FIG. 13B): 45 min
- sphingomyelin synthesis (in words) (MCF-7-AdrR cells [2]; tamoxifen 20 μM, FIG. 13C): not influenced; also recorded: not altered
- level of ceramide / ceramide synthesis (in words) (MCF-7-AdrR cells [2]; tamoxifen, FIG. 14A): remained unchanged; also recorded: very similar
- binding to P-glycoprotein (in words) (P-glycoprotein): direct binding to P-glycoprotein
- inhibition at 5 µM ([3]; 5.0 μM C6-ceramide, read-out: inhibition of conversion of C6-ceramide to C6-glycosylceramide): 54%
- inhibition at 5 µM ([3]; in presence of C6-ceramide, read-out: inhibition of formation of natural glycosylceramide): 43%
- inhibition of glycosylation of C6-ceramide (in words) ([3]; tamoxifen): drastically inhibited
- effect on adriamycin toxicity / chemosensitization (in words) (MCF-7-AdrR cells [4]): shifted to lower concentrations; also recorded: very potent in cell killing
- effect on adriamycin toxicity / chemosensitization (in words) (MCF-7-AdrR cells [4]; listed as Tamoxifen): potently sensitized
- effect of the substance alone on cell survival (in words) (MCF-7-AdrR cells [4]; MCF-7-AdrR, alone): not toxic
